According to US20140370129A1, “DOSING REGIMEN AND METHOD FOR TREATING CANCER USING A COIX SEED OIL EMULSION” (Zhejiang Kanglaite Group Co., Ltd., priority 2013, published 2014):

Assays:
[1] = system: advanced or metastatic adenocarcinoma of the pancreas; settings: first-line therapy; P=0.003; cited from earlier work
[2] = system: advanced or metastatic pancreatic carcinomas; settings: erlotinib versus placebo, with gemcitabine; cited from earlier work
[3] = system: metastatic pancreatic adenocarcinoma; settings: not previously treated with chemotherapy; cited from earlier work
[4] = system: locally advanced or metastatic pancreatic cancer; test: Phase 2b study of Kanglaite Injection plus gemcitabine vs gemcitabine alone; format: in vivo
Description: Efficacy of the treatment may be monitored, for example, by CT scans of the patients to determine growth or progression of the tumor, or Karnofsky performance. The Karnofsky Performance Scale Index allows patients to be classified on a scale of 0 to 100 as to their functional impairment, with zero indicating death and 100 indicating no patient complaints and no evidence of disease. The primary efficacy outcome measure for the efficacy trial described in Example 2 was Progression Free Survival (PFS). PFS includes patient deaths and assumes that death is related to progression of cancer, a reasonable assumption with pancreatic cancer. PFS is defined as the time interval from randomization to objective tumor progression or death.
As shown in Example 2, efficacy of the treatment was evaluated in part using RECIST 1.1 RECIST refers to the Response Evaluation Criteria for Solid Tumors assessment tool an involves measuring tumors (lesions) in patient using, for example, CT or MRI. As noted above, RECIST Version 1.1 was utilized in evaluating patient responses.
A phase 2b, multi-center, randomized, open-label clinical trial compared the effect of gemcitabine in combination with KLTi to gemcitabine alone in patients with locally advanced or metastatic pancreatic cancer, not amenable to curative surgical resection.
A total of 41 patients were randomized to Cohort 1 with 38 included in the safety population, specifying all patients who received at least one dose of study drug. Thirty-seven of the 38 patients had been diagnosed as having Stage IV pancreatic cancer. Twenty-six patients were assigned to Group 1 to receive both KLTi and gemcitabine while 12 patients were assigned to Group 2 to receive only gemcitabine.
All patients received marketed gemcitabine, which was administered at 1000 mg/m^2 over a minimum of 30 min and a maximum of 38 min once weekly for 3 weeks, followed by a rest period of 13 days before the next gemcitabine dose. Based on a chemotherapy cycle of 28 days (4 weeks), gemcitabine was given on Days 1, 8, and 15 of the 28-day cycle. For patients in Group 1, KLTi infusion was administered on each of Days 1-5 for each of those same 3 weeks (i.e., Days 1-5, Days 8-12 and Days 15-19). Patients were then rested for the remaining 9 days of the cycle (Days 20-28).
Dosing of Group 1 patients included administration of KLTi at a dose of 30 g/day provided as a 300 mL volume. For the first 2 KLTi infusions for each patient, the infusion rate was started at 1.0 mL/min for the first 15 min, and then increased to 150 mL/hr until the KLTi was completely infused if no safety issues were apparent. Once safety was established in the first 2 infusions, all subsequent KLTi infusions were given at a target rate of 150 m L/hr. Beginning with cycle 2, the target rate of infusion may, however, have been increased to […]. The total infusion time for 300 mL of KLTi was therefore expected to be approximately 2 hr for Cycle 1 and approximately 90 min for all remaining cycles.
Progression Free Survival (PFS) was calculated from the date of randomization to the date of objective disease progression or death. Patients without objective disease progression or death were censored at their last evaluable tumor assessment. […] This significant increase in PFS in Group 1 as compared to Group 2 is indicative of the significant advantage of administering KLTi in combination to gemcidabine as compared to administering gemcidabine alone to treat pancreatic cancer.

[5] = system: pancreatic cancer; settings: human, in vivo; cited from earlier work
[6] = RECIST 1.1, Efficacy Evaluable Population, n (%)
[7] = RECIST 1.1, Intent To Treat Population, n (%)

SMILES	1-year survival [1]	1-year survival rate [2]	median survival [2]	median overall survival [3]	PFS Rate 1 month ([4]; 1 month)	PFS Rate 1 year ([4]; 1 year)	PFS Rate 3 months ([4]; 3 months)	PFS Rate 4 months ([4]; 4 months)	PFS Rate 6 months ([4]; 6 months)	Median PFS ([4]; Progression Free Survival, randomization to objective progression or death, KLTi 30 g/day IV Days 1-5, 8-12, 15-19 with gemcitabine 1000 mg/m^2 Days 1, 8, 15 of 28-day cycle)	CR + PR (%) [4, 6]	Complete Response (CR) [4, 6]	Partial Response (PR) [4, 6]	Progressive Disease (PD) [4, 6]	Complete Response (CR) [4, 7]	Partial Response (PR) [4, 7]	Progressive Disease (PD) [4, 7]	alive at the end of the first year [5]
O=c1[nH]cc(F)c(=O)[nH]1 [5-FU, fluorouracil]	2%																	
Nc1ccn([C@@H]2O[C@H](CO)[C@@H](O)C2(F)F)c(=O)n1 [Gemcidabine, gemcitabine]	18%	17%	5.9 months	6.8 months	75%	8.3%	25%	25%	8.3%	57.5 days	1 (11.1%)	0 (0%)	1 (11.1%)	6 (66.7%)	0 (0%)	1 (7.7%)	6 (46.2%)	22%
